Assay results published in article PMC12811658, “Design, Synthesis, and Structural Evolution of Pseudo‐Natural Product IDO1 Inhibitors and Degraders” (Angewandte Chemie (International Ed. in English), 2025).

Columns and labels:
[1] = test system: Kyn levels in BxPC3 cells (kynurenine generated by IDO1); experiment: Cellular Kyn assay (automated Kyn screening assay); type: cell-based; details: for IC50: Homo sapiens, BXPC-3, 48 h, IFN-γ, L-Trp and compounds 48 h, mean ± SD, read-out: IC50 (Kyn assay), reduction of kynurenine levels
[2] = molecular target: T1, recombinant human IDO1 (Homo sapiens, UniProt P14902); experiment: IDO1 enzymatic assay in vitro; type: biochemical; details: pre-incubation 37 °C 45 min; for inhibition at 14 µM: mean ± SD
T1 construct: The GST-tag of IDO1 was removed to obtain untagged full-length IDO1l using PreScission protease; GST (N, cleaved yes); made in house; own inference
T1 sequence (P14902 whole entry): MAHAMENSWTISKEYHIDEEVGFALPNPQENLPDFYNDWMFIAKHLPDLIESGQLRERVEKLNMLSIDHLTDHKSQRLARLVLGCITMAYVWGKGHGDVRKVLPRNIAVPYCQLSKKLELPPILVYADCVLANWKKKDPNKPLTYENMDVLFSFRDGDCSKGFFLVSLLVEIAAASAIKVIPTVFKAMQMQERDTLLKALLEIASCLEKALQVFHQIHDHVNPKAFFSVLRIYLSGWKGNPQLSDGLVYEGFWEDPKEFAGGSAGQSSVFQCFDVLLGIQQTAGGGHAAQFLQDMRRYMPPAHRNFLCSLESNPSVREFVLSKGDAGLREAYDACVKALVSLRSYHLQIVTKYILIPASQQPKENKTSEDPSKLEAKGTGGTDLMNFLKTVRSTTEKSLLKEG

[3] = molecular target: T2, IDO1 protein in IFN-γ stimulated HeLa cells (Homo sapiens, UniProt P14902); experiment: IDO1 immunostaining (immunofluorescence); type: cell-based; details: 24 h
T2 construct: endogenous in cells; host or cells: HeLa (DSMZ), IFN-γ stimulated
T2 sequence (P14902 whole entry): as above
Procedure: Figure 3 Comparison of IDO1 degradation efficiency for selected compounds. a) Detection of IDO1 levels using immunostaining. IFN‐γ stimulated HeLa cells were treated with the compounds for 24 h. IDO1 protein abundance was detected with IDO1 antibody. Data are mean values ± SD, n = 3. b) IDO1 protein levels in BxPC3 cells upon compounds treatment were detected using immunoblotting. BxPC3 cells were treated with IFN‐γ for 24 h prior to washout, followed by addition of compounds. Representative blot and quantified band intensities are shown (mean values ± SD, n = 3). See Figure S11a S12a for the uncropped blots. c) Key functions of hit compounds that influence degradation efficiency. d) Heatmap for IDO degradation efficiency. IDO1 levels were monitored as described in (c). See Table S1 for mean values and Figure S11b for the uncropped blots. e)–g) Dose dependent degradation of IDO1 protein in BxPC3 cells treated with iDeg‐7–9 and detected as described in (c). Representative data of n = 3 except for iDeg‐9 (n = 4). See Figure S12 S13 for the uncropped blots. h) Quantification of IDO1 protein levels from e‐g (mean values ± SD, n = 3 except for iDeg‐9 (n = 4). i) Tabulated inhibition and degradation ability of iDeg‐6–9. ND: not detected. j) Volcano plot of iDeg‐6‐induced changes on the global proteome. SKOV‐3 cells were treated with 10 µM iDeg‐6 or DMSO for 4 h followed by protein extraction, tryptic digest and LC‐MS/MS analysis (n = 4). Plot generated using UMSAP (T 0 = 0.5, S 0 = 0.5).
IFN-γ-stimulated Hela cells (5 ng/mL IFN-γ) were seeded in 96-well plates and incubated for 24 h. Subsequently, IFN-γ was washed out and cells were treated with compounds for additional 24 h. Cells were then washed once with PBS and fixed with 3.7% paraformaldehyde for 10 min at room temperature. Cells were washed three times with ice-cold PBS. […] Images were analyzed by SpectraMax Paradigm microplate reader (Molecular Devices) to extract IDO1 fluorescence intensity as well as the cell count. IDO1 fluorescence intensity was normalized to cell count. […]

[4] = molecular target: IDO1 protein levels in BxPC3 cells (Homo sapiens, UniProt P14902); experiment: IDO1 immunoblotting (degradation); type: cell-based; parameters: endogenous in cells; host or cells: BxPC3 (DSMZ), IFN-γ stimulated; details: for IDO1 protein level by immunoblotting (in words): IFN-γ 24 h, washout, compounds 24 h; for Max. degradation (%): 24 h incubation, mean ± SD; for Dmax at 0.1 µM: BXPC-3, @100 nM
Chain of IDO1 protein levels in BxPC3 cells (P14902 whole entry): as above

[5] = molecular target: T3, heme-bound IDO1 (holo-IDO1) (Homo sapiens, UniProt P14902); experiment: UV/Vis detection of heme-bound IDO1 (heme displacement); type: binding; details: 50 µM
T3 construct: The GST-tag of IDO1 was removed to obtain untagged full-length IDO1l using PreScission protease; GST (N, cleaved yes); made in house; own inference
T3 sequence (P14902 whole entry): as above
Procedure: (§1) Incubation at 37 °C for 3 h. Representative data for n = 3. c) Time‐course of heme displacement from IDO1 detected by the absorbance at the Soret peak (404 nm) as a function of time. […] All curves were fit using a one‐site model with N = 1 and defined IDO1 concentration. Left plots show baseline corrected data, while right plots show integrated binding isotherms versus iDegs/IDO1 ratio. IDO1 protein (125 µM) was titrated into the stirred sample cell containing iDegs (25 µM, except for iDeg‐8 at 50 µM). Representative data for n = 3, except for iDeg‐9 (n = 2). g)–i) In vivo activity of iDeg‐6. NSG immunodeficient mice were injected with SKOV‐3 cells. Mice were treated with 18 intraperitoneal injections of iDeg‐6 (30 mg kg^−1) or vehicle. The pharmacological treatment was twice daily. Tumor volume was determined weekly by digital caliper. g) SKOV‐3 tumor growth curves in iDeg‐6‐treated mice (n = 12, green lines) or vehicle‐treated mice (n = 13, gray lines). Statistical analysis was performed by two‐way ANOVA: ****p < 0.001. h) Body weight changes during treatment window (mean values ± range). i) Survival data are shown by Kaplan‐Meier survival analysis. Mantel–Haenszel statistical analysis: p < 0.0001).
Representative data of n=3 biological replicates. c, IDO1 was incubated with compounds (50 µM) or DMSO (control). UV/VIS spectra were acquired at five time points to monitor heme loss over time. Data are representative of two replicates.
The test compounds or DMSO (vehicle control) were incubated with recombinant full-length human IDO1 (rhIDO1; 10 µM) in 50 mM potassium phosphate buffer (pH 6.5) for 3 h at 37 °C. Following incubation, samples were centrifuged at 5,000 × g for 10 minutes. UV/Vis absorption spectra were then recorded from 250 nm to 650 nm in 1 nm increments using UV-transparent microplates (UV-STAR®, Greiner Bio-One, Austria) on a Spark® multimode microplate reader (Tecan, Austria). Absorbance values were analyzed at 404 nm (A404), and were plotted using GraphPad Prism version 9.0 (GraphPad Software, USA).

[6] = molecular target: T4, recombinant full-length human IDO1 (Homo sapiens, UniProt P14902); experiment: Isothermal titration calorimetry (ITC); type: binding; details: 25 °C
T4 construct: The GST-tag of IDO1 was removed to obtain untagged full-length IDO1l using PreScission protease; GST (N, cleaved yes); made in house; own inference
T4 sequence (P14902 whole entry): as above
Procedure: as §1
ITC was performed using the MicroCal PEAQ-ITC system (Malvern) at 25 °C. Recombinant human full-length IDO1 (rhIDO1) was buffer-exchanged into 100 mM phosphate buffer (50 mM KH₂PO₄ and 50 mM K₂HPO₄, pH 6.57) with 1 mM TECP using a 10 K Amicon® Ultra centrifugal filter (Millipore). The buffer exchange was repeated ten times to ensure complete removal of interfering components. The final protein sample was diluted in the same phosphate buffer prior to titration.125 μM protein in 100 mM phosphate buffer was loaded into the syringe, while 25 μM compound (except for iDeg-8, 50 μM) in 100 mM phosphate buffer was loaded to the cell. All samples were adjusted to 25 °C and degassed before loading. Titrations were performed at 25 °C with one injection of 0.4 µL, followed by 18 injections of 2 µL. Experiments were performed with three biological replicates except for iDeg-9 with two biological replicates. Data were analyzed using the MicroCal PEAQ-ITC Analysis software and were plotted using GraphPad Prism 9.0 (GraphPad, USA).

[7] = determined if inhibition at 14 µM higher than 50%

Row | SMILES | IC50 [1] | inhibition at 14 µM [2] | IC50 [2, 7] | heme displacement from holo-IDO1 (in words) ([5]; 37 °C, 3 h, Soret band 404 nm) | time course of heme displacement (in words) ([5]; absorbance at 404 nm over time, compared to iDeg-6 and -8) | Kd [6] | Max. degradation (%) ([4]; 10 nM) | Max. degradation (%) ([4]; 100 nM) | IDO1 activity IC50 [µM] (in vitro assay) [2, 7] | IDO1 staining fluorescence intensity (in words) [3] | IDO1 protein level by immunoblotting (in words) ([4]; BxPC3 cells) | -TΔS (ITC) [6] | ΔG (ITC) [6] | ΔH (ITC) [6] | Kd ([6]; one-site model) | Dmax at 0.1 µM ([4]; BxPC3 cells) | DC50 ([4]; BxPC3 cells, ND: not detected, read-out: DC50 (half-maximal degradation concentration)) | fold increase in potency compared to iDeg-2 in Kyn assay [1]
1 | C#Cc1ccc(NC(=O)OC[C@]23CN(S(=O)(=O)c4ccc(C(C)(C)C)cc4CC)C[C@H]2C[C@H]2C[C@@H]3C2(C)C)cc1 [99 (iDeg-8), ((3aS,4R,6R,7aS)-2-((4-(tert-butyl)-2-ethylphenyl)sulfonyl)-5,5-dimethyloctahydro-3aH-4,6-methanoisoindol-3a-yl)methyl (4-ethynylphenyl)carbamate] | 9.7 ± 2 nM | 61 ± 1% | 4 ± 3.3 µM | – | – | – | 66 ± 4 (3) % | 75 ± 7 (3) % | – | – | – | 3.5 kcal/mol | -8.2 kcal/mol | -11.8 ± 0.7 kcal/mol | 940 nM | 75% | 3 nM | –
2 | COc1cc(C(C)(C)C(=O)O)ccc1S(=O)(=O)N1C[C@H]2C[C@H]3C[C@H](C3(C)C)[C@@]2(COC(=O)Nc2ccc(I)cc2)C1 [compound 95, 2-(4-(((3aS,4R,6R,7aS)-3a-((((4-iodophenyl)carbamoyl)oxy)methyl)-5,5-dimethyloctahydro-2H-4,6-methanoisoindol-2-yl)sulfonyl)-3-methoxyphenyl)-2-methylpropanoic acid] | 80 ± 22 nM | 57 ± 3% | 0.67 ± 0.1 µM | – | – | – | Inactive (5) | Inactive (5) | – | – | – | – | – | – | – | – | – | –
3 | CC(C)(C(=O)O)c1ccc(S(=O)(=O)N2C[C@H]3C[C@H]4C[C@H](C4(C)C)[C@@]3(COC(=O)Nc3ccc(I)cc3)C2)c(Cl)c1 [compound 96, 2-(3-chloro-4-(((3aS,4R,6R,7aS)-3a-((((4-iodophenyl)carbamoyl)oxy)methyl)-5,5-dimethyloctahydro-2H-4,6-methanoisoindol-2-yl)sulfonyl)phenyl)-2-methylpropanoic acid] | 14 ± 3 nM | 62 ± 1% | 0.19 ± 0.1 µM | – | – | – | 15 ± 2 (3) % | 20 ± 12 (3) % | – | – | – | – | – | – | – | – | – | –

Continued, in another order:

Row | IC50 [1] | inhibition at 14 µM [2] | IC50 [2, 7] | heme displacement from holo-IDO1 (in words) ([5]; 37 °C, 3 h, Soret band 404 nm) | time course of heme displacement (in words) ([5]; absorbance at 404 nm over time, compared to iDeg-6 and -8) | Kd [6] | Max. degradation (%) ([4]; 10 nM) | Max. degradation (%) ([4]; 100 nM) | SMILES | IDO1 activity IC50 [µM] (in vitro assay) [2, 7] | IDO1 staining fluorescence intensity (in words) [3] | IDO1 protein level by immunoblotting (in words) ([4]; BxPC3 cells) | -TΔS (ITC) [6] | ΔG (ITC) [6] | ΔH (ITC) [6] | Kd ([6]; one-site model) | Dmax at 0.1 µM ([4]; BxPC3 cells) | DC50 ([4]; BxPC3 cells, ND: not detected, read-out: DC50 (half-maximal degradation concentration)) | fold increase in potency compared to iDeg-2 in Kyn assay [1]
4 | 830 ± 310 nM | < 25% | – | – | – | – | – | – | Cc1ccc(NC(=O)OC[C@]23CN(S(=O)(=O)c4ccc(C(C)(C)C)cc4)C[C@H]2C[C@H]2C[C@@H]3C2(C)C)cc1 [10 (iDeg-1), ((3aS,4R,6R,7aS)-2-((4-(tert-butyl)phenyl)sulfonyl)-5,5-dimethyloctahydro-3aH-4,6-methanoisoindol-3a-yl)methyl p-tolylcarbamate] | – (Inactive: >75% Kyn level observed up to a concentration of 14 µM and no IC50 value obtained) | reduced the fluorescence intensity of the IDO1 staining | modulate IDO1 abundance | – | – | – | – | – | – | –
5 | 21 ± 6 nM | 75 ± 4% | 0.31 ± 0.06 µM | most efficient heme displacement | faster | 122 nM | 36 ± 10 (5) % | 54 ± 8 (5) % | C#Cc1ccc(NC(=O)OC[C@]23CN(S(=O)(=O)c4ccc(C(C)(C)C(=O)O)cc4)C[C@H]2C[C@H]2C[C@@H]3C2(C)C)cc1 [101 (iDeg-7), 2-(4-(((3aS,4R,6R,7aS)-3a-((((4-ethynylphenyl)carbamoyl)oxy)methyl)-5,5-dimethyloctahydro-2H-4,6-methanoisoindol-2-yl)sulfonyl)phenyl)-2-methylpropanoic acid] | – | – | only moderately reduced the IDO1 protein level | 13.2 kcal/mol | -9.4 kcal/mol | -22.6 ± 0.4 kcal/mol | 120 ± 20 nM | – | – | –
6 | 30 ± 3 nM | 66 ± 8% | 0.82 ± 0.14 µM | – | – | – | 23 ± 22 (5) % | 46 ± 21 (5) % | CC(C)(C(=O)O)c1ccc(S(=O)(=O)N2C[C@H]3C[C@H]4C[C@H](C4(C)C)[C@@]3(COC(=O)Nc3ccc(I)cc3)C2)cc1 [92 (iDeg-5), 2-(4-(((3aS,4R,6R,7aS)-3a-((((4-iodophenyl)carbamoyl)oxy)methyl)-5,5-dimethyloctahydro-2H-4,6-methanoisoindol-2-yl)sulfonyl)phenyl)-2-methylpropanoic acid] | – | – | – | – | – | – | – | 36 to 54% | – | 4 fold
